Assay results as given in patent US3946006A, “Tetrahydrothiadiazinethiones” (Sterling Drug Inc., priority 1974, dated 1976).

Tests used:
Assay in all cases: minimal inhibiting concentration (MIC), filter disc agar plate test
Assay type in all cases: cell-based
[1] = tested on: Staphylococcus aureus; conditions: S. aureus; nutrient agar, 24 hours incubation
Protocol: (§1) The bacteriological effectiveness of the compounds of the invention was determined with reference to minimal inhibiting concentrations, that is, the minimal concentration that will effect complete inhibition of germ growth (MIC). The test procedure is as follows:
(§2) A 1% suspension, botained by homogenizing 500 mg. of the test agent in 50 ml. of 0.5% natrosol solution (natrosol 250 HRPS = hydroxymethylcellulose), is serially diluted with 0.5% natrosol solution to provide suspensions, in sterile test tubes, having concentrations of 0.1, 0.05, 0.01 and 0.005 percent. To ensure accuracy in dilution, the suspensions are mixed with the aid of a mechanical mixer. The dilutions (6 ml.) are added to sterile cups and immediately 10 filter discs (.phi. about 10 mm) are placed on the surface of the liquid in each cup. The filter discs, which slowly sink to the bottom on becoming saturated, are left in the solutions for one hour. 16-Hour old cultures of Escherichia coli, Staphylococcus aureus, Pyoceanus fluorescens and Proteus vulgaris are diluted at the ratio of 1:10 in glucose broth. 1-Week cultures of Penicillium glaucum, Aspergillus niger, Chaetomium globosum, Trichoderma viride, Humicola sp., Scopulariopsis brevicaulis, Pullularia pullulans, Sclerophoma pityophila, Saccharomyces cerevisiae and Candida albicans are harvested by rinsing and diluted 1:10 in nutrient broth.
(§3) Standard II nutrient agar plates, with an addition of lactose and bromothymol blue (BROLAC agar) for bacteria, and Sabouraud agar plates for yeasts and fungi, are dried and labeled (10 Sabouraud agar plates and 4 nutrient agar plates were used per preparation). Of the diluted germ suspensions, 0.05 ml (1 drop) is inoculated onto each plate. Prior to further treatment, the plates are allowed to stand for one-half hour to absorb the germ suspension. Filter discs, corresponding to each of the five dilutions, are placed on the surface of each inoculated plate for each culture (step 1). The plates are examined for zones of inhibition after twenty-four hours incubation in the case of bacteria, and after three days incubation in the case of yeasts and fungi. Antimicrobial activity is indicated by occurance of a zone of inhibition. In the case of bacteria, the purity of the culture can be determined at the same time by lactose fermentation as indicated by color change in the nutrient medium. A visible inhibition ring is designated as negative growth an no inhibition ring as 3+ growth. […] A new dilution series then is prepared, with only one, or at most two, filter discs being placed on the surface of each plate for each culture. Activity is then determined as described above.
(§4) The MIC values, expressed in percent concentration of the test agent, is presented in TAble 1 for compounds of the invention having formula I designated Example 1 (R--O--A = CH2 CH2 OCH3), Example 2 (R--O--A = CH2 CH2 OCH3) and Example 4(R--O--A = CH2 CH2 CH2 OCH2 CH3), and for two known compounds, designated A (3,5-dibenzyl-tetrahydro-2H-1,3,5-thiadiazine-2-thione) and B[3,5-bis(2-hydroxyethyl)-2H-1,3,5-thiadiazine-2-thione].

[2] = tested on: Pyoceanus fluorescens; conditions: P. fluorescens; nutrient agar, 24 hours incubation
Protocol: as §1, §2, §3, §4

[3] = tested on: Trichoderma viride; conditions: T. viride; Sabouraud agar, three days incubation
Protocol: as §1, §2, §3, §4

[4] = tested on: Humicola sp.; conditions: Sabouraud agar, three days incubation
Protocol: as §1, §2, §3, §4

[5] = tested on: Proteus vulgaris; conditions: P. vulgaris; nutrient agar, 24 hours incubation
Protocol: as §1, §2, §3, §4

[6] = tested on: Pullularia pullulans; conditions: P. pullulans; Sabouraud agar, three days incubation
Protocol: as §1, §2, §3, §4

[7] = tested on: Chaetomium globosum; conditions: C. globosum; Sabouraud agar, three days incubation
Protocol: as §1, §2, §3, §4

[8] = tested on: Aspergillus niger; conditions: A. niger; Sabouraud agar, three days incubation
Protocol: as §1, §2, §3, §4

[9] = tested on: Escherichia coli; conditions: E. coli; nutrient agar, 24 hours incubation
Protocol: as §1, §2, §3, §4

[10] = tested on: Scopulariopsis brevicaulis; conditions: S. brevicaulis; Sabouraud agar, three days incubation
Protocol: as §1, §2, §3, §4

[11] = tested on: Penicillium glaucum; conditions: P. glaucum; Sabouraud agar, three days incubation
Protocol: as §1, §2, §3, §4

[12] = tested on: Sclerophoma pityophila; conditions: S. pityophila; Sabouraud agar, three days incubation
Protocol: as §1, §2, §3, §4

[13] = tested on: Saccharomyces cerevisiae; conditions: S. cerevisiae; Sabouraud agar, three days incubation
Protocol: as §1, §2, §3, §4

[14] = tested on: Candida albicans; conditions: C. albicans; Sabouraud agar, three days incubation
Protocol: as §1, §2, §3, §4

SMILES	MIC [1]	MIC [2]	MIC [5]	MIC [6]	MIC [8]	MIC [9]	MIC [11]	MIC [12]	MIC [13]	MIC [14]	MIC [3]	MIC [4]	MIC [7]	MIC [10]
S=C1SCN(Cc2ccccc2)CN1Cc1ccccc1 [A, 3,5-dibenzyl-tetrahydro-2H-1,3,5-thiadiazine-2-thione, reference compound]	1 % conc.	1 % conc.	1 % conc.	> 1 % conc.	> 1 % conc.	1 % conc.	> 1 % conc.	> 1 % conc.	> 1 % conc.	> 1 % conc.	> 1 % conc.	> 1 % conc.	> 1 % conc.	> 1 % conc.
OCCN1CSC(=S)N(CCO)C1 [B, 3,5-bis(2-hydroxyethyl)-2H-1,3,5-thiadiazine-2-thione, reference compound]	0.05 % conc.	0.1 % conc.	1 % conc.	0.01 % conc.	1 % conc.	1 % conc.	1 % conc.	0.01 % conc.	0.1 % conc.	1 % conc.	1 % conc.	0.1 % conc.	1 % conc.	0.1 % conc.
COCCCN1CSC(=S)N(CCCOC)C1 [Ex. 1, 3,5-Bis(3-methoxypropyl)-tetrahydro-2H-1,3,5-thiadiazine-2-thione]	0.05 % conc.	0.1 % conc.	0.1 % conc.	0.005 % conc.	0.03 % conc.	0.1 % conc.	0.005 % conc.	0.005 % conc.	0.05 % conc.	0.05 % conc.	0.03 % conc.	0.01 % conc.	0.005 % conc.	0.005 % conc.

Further lines, with some results ahead:

MIC [1]	MIC [2]	MIC [5]	MIC [6]	MIC [8]	MIC [9]	MIC [11]	MIC [12]	MIC [13]	MIC [14]	SMILES	MIC [3]	MIC [4]	MIC [7]	MIC [10]
0.07 % conc.	0.1 % conc.	0.1 % conc.	0.05 % conc.	0.1 % conc.	0.1 % conc.	0.05 % conc.	< 0.005 % conc.	0.01 % conc.	0.05 % conc.	COCCN1CSC(=S)N(CCOC)C1 [Ex. 2, 3,5-Bis(2-methoxyethyl)-tetrahydro-2H-1,3,5-thiadiazine-2-thione]	0.1 % conc.	< 0.005 % conc.	0.01 % conc.	< 0.005 % conc.
0.05 % conc.	0.1 % conc.	0.05 % conc.	< 0.003 % conc.	< 0.003 % conc.	0.1 % conc.	< 0.003 % conc.	< 0.003 % conc.	< 0.003 % conc.	0.01 % conc.	CCOCCCN1CSC(=S)N(CCCOCC)C1 [Ex. 4, 3,5-Bis(3-ethoxypropyl)-tetrahydro-2H-1,3,5-thiadiazine-2-thione]				
